SMILES strings stand for the structures.

Data set [1] can be described thus: Lipophilicity: partition coefficient (octanol-buffer) and capacity factor by RP-HPLC. It is filed as physicochemical. Particulars: pH 5.0.
Data set [2] is described as follows: pKa-value determination by titration in a water-ethanol mixture (50%-50%). Format: physicochemical. The following applies: water-ethanol 50:50; titration in water-ethanol mixture (50%-50%).
The nature of data set [3]: Stability of the compounds: buffer hydrolysis (half-times, shelf-life). It is filed as physicochemical. Particulars: buffer, 50 °C. As to the method: The stability of the test compounds were tested with buffer hydrolyses. The ionic strength (µ) of the buffers was 0.5, the pH-values used 4.2, 6.0, 7.4 and 9.0 and the temperatures used 37°C, 50 °C, 60 °C and 70 °C.
The half-times T½ calculated on basis of the degradation constant k obtained for each studied compound (T½=0.693/k; k = 2.303 x kk, wherein kk is the angular coefficient of the plot which illustrates the logarithm of the remaining ester as a function of time) in a buffer solution of said pH, are indicated in the Table I below, which values refer to half-times at 37°C.
The storage stability of the derivatives under different storage conditions may be estimated by determining the degradation constants at different temperatures and calculating the degradation constant k at the desired temperature from the equation of the plot corresponding to the Arrhenius equation (1), wherein log k is given as a function of [1/T]. Log k = Log A -(Ea)/(2.303R)x(1)/(T) [formula]
From the degradation constant (k) obtained at the desired temperature the shelf-life-time t10% (t10% = 0.104/k) which indicates the time during which 10% of the drug has degraded may be calculated. By way of example it may be mentioned that the t10%-time of O,O'-dipropionyl (1,4-xylylene) bispilocarpate at 4 °C is almost 500 days.

Data set [4] can be described thus: Enzyme hydrolysis in plasma/buffer pH 7.4 mixture (80%-20%). It is filed as in vitro ADME. The following applies: 80% plasma/buffer; plasma/buffer pH 7.4 (80%-20%), 37°C; read-out: half-times (T½) in plasma (80%), 37°C. How it is done:
The half-times of enzyme hydrolysis of the novel bispilocarpates according to the invention and of known pilocarpic acid diesters were determined in a plasma/buffer pH 7.4-mixture (80%-20%) at 37°C. The degradation constants (k) for the compounds tested and determined from the plot showing the logarithm of remaining diester as a function of time and the half-lives T½ are shown in the Table II below. From the results it may be seen that in […] the stable test compound degrades under the influence of an enzyme (esterase) to a O,O'-dihydrogen bispilocarpate intermediate, which spontaneously degrades at pH 7.40 to pilocarpine. Consequently the effect of the bispilocarpate intermediate on the rate of formation of pilocarpine is very significant. The formation of pilocarpine was almost complete irrespective of the epimerization possibility of the intermediate. The amount of isopilocarpine formed varied from 0 to 10%, as also the pilocarpine formed epimerized, if the duration of hydrolysis was very long.

The conditions of data set [5]: administered locally as eyedrops; cited from earlier work.
Data set [6] can be described thus: Corneal permeability in a diffusion chamber. It is filed as in vitro ADME, rabbit. The following applies: rabbit eye cornea, diffusion chamber, epithelium side to endothelium side; read-out: Permeability coefficient Papp. The source says:
The corneal permeability of pilocarpine hydrochloride and its most promising prodrug derivatives as evaluated from the tests described above were studied in a diffusion chamber, wherein the migration of the compound from the delivering phase (epithelium side) thorugh the cornea to the acceptor side (endothelium side) of the diffusion chamber. In the study, rabbit eye cornea was used. From the samples taken from the acceptor side of the diffusion chamber, both the concentration of the prodrug and the liberated drug were determined in the acceptor phase with HPLC. Thus the rate of degradation of the prodrug in the cornea was determined. The permeability coefficients (Papp, cm/s) calculated from the permeability rate (μmol/min), their […] deviations (RSD) and the number of tests, are given in the Table II below.

Data set [7] in a line: Lipophilicity: partition coefficient (octanol-buffer) and capacity factor by RP-HPLC. It is filed as physicochemical. The following applies: rp-hplc; reverse phase HPLC, 22°C; read-out: Capacity factor (22°C) k' (converted). The text has this:
The lipophilicity of the compounds were studied by determining the partition coefficients (P) of the compounds at a pH of 7.40. The measurements were made either in an octanol-buffer mixture by determining the concentration of the compound to be studied in the buffer phase by HPLC. The partition coefficients of the very lipophilic compounds were, however, determined by reverse phase (RP) liquid chromatography (HPLC) from the retention time (Beckmann 116 pump and 166 UV detector; Marathon autom. sample feeder). […] From the results it can be seen that the compounds of the invention are considerably more lipophilic than the pilocarpine.

In the case of `CC[C@H](C(=O)OCCCCCCOC(=O)[C@@H](CC)[C@H](COC(=O)C1CC1)Cc1cncn1C)[C@H](COC(=O)C1CC1)Cc1cncn1C` [Example 20, O,O'-Dicyclopropylcarbonyl (1,6-hexylene) bispilocarpate], the logD in data set [1] is 0.88. For the same molecule, the pKa in data set [2] worked out at 6. The half-life in data set [3] (pH 4.2, pH 4.20, read-out: Chemical hydrolysis t½, pH 4.20 (converted)) was 134 days; in data set [3] (pH 7.4, pH 7.40, read-out: Chemical hydrolysis t½, pH 7.40 (converted)) it was 27.7 days; in data set [3] (pH 6.00, read-out: Chemical hydrolysis t½, pH 6.00 (converted)), 142 days; in data set [4] it was 0.0104 days.

As for `CC[C@@H]1C(=O)OC[C@@H]1Cc1cncn1C` [Pilocarpine, (3S-cis)-3-ethyl-dihydro-4-[(1-methyl-1H-imidazol-5-yl)methyl]-2(3H)-furanone], in data set [5], the “pilocarpine dose absorbed by the eye” value is listed as “about 1%” and the “pilocarpine dose absorbed in the blood stream” value was “about 70%”. Besides, in data set [6], the Papp came out at 4.1 ×10⁻⁶ cm/s. In addition, the chromatographic logP in data set [7] was -0.392.
